The record followed here is patent US4604383A, “Pyrrolidin-2-ones and medicaments containing them” (Societe Anonyme Styled: SANOFI, priority 1983, dated 1986).

Read-outs that look alike come from different tables or passages of the source.

Data set [1] in a line: Effect on spontaneous motility (Boissier and Simon activity test, actimetric cages). To be noted: mouse; for Locomotor activity, score percent/controls: 100 mg/kg p.os., 45 min after administration, 10 min recording, * P <= 0.05, ** P <= 0.01; for Effect on spontaneous motility (in words): oral dose of 100 mg/kg. Type of data set: in vivo, mouse (CD1 Charles Rivers female mice). On the procedure:
The spontaneous motility of the animals was measured by means of the activity test developed by Boissier and Simon, Arch. Int. Pharmacocyn., 1965, 158, 212-221. The equipment is composed of actimetric cages, type Apelab (26×21.5×10 cm), traversed by two light rays which fall on a photoelectric cell. The batches were constituted by CD1 Charles Rivers female mice, of weight comprised between 20 and 24 g. The animals were placed individually in cages 45 minutes after oral administration of the products at the dose of 100 mg/kg. Each traversal by a light beam was counted by an individual counter. The scores corresponding to the movements of the animals were recorded for 10 minutes, and compared with the scores taken on batches of control animals, treated only with the vehicle (5% gum arabic).

The nature of data set [2]: Acute toxicity, determination of the lethal dose in the mouse. To be noted: in vivo, po, read-out: Percent toxicity (animals which die in 72 hours). On the procedure:
The toxicity of the products according to the invention was studied: the products were administered orally, to batches of 5 CD Charles Rivers female mice, of weights comprised between 20 and 24 g. The toxicity was noted during the 72 hours which followed the administration of the products.
The results expressed as a percentage of animals which die in the 72 hours following the oral administration of the products, are noted in the preceding table.

A short description of data set [3]: Antagonism of the convulsions induced by electric shock. Type of data set: in vivo, mouse (CD1 Charles Rivers mice). Particulars: mouse; for ED50: oral, 60 min before electroshock, probit method, confidence limits in parentheses, p <= 0.05, read-out: Median effective dose (ED50) of electric shock antagonism. On the procedure: (§1) The anticonvulsant effect of the products in the mouse was evaluated on a model of convulsions caused by electric shock, and on 2 models of convulsions induced by chemical agents: bicuculline and 3-mercaptopropionic acid.
(§2) The test was slightly modified from that of Swinyard et al., J. Pharm. Exp. Ther., 1952, 106, 319-330 and Asami et al. Arzneim. Forsch., 1974, 24 (1), 1563-1568. The equipment was composed of a Racia shock generator provided with two occular electrodes delivering a current of 60 volts for 0.3 seconds. The batches were constituted by 10 CD1 Charles Rivers mice of weight comprised between 20 and 24 g. The products were administered orally, 60 minutes before the electroshock.

Data set [4] in a line: Potentiation of narcosis with pentobarbital (loss of righting reflex). In kind it is in vivo, mouse (CD1 Charles Rivers mice). To be noted: mouse; for Potentiation of pentobarbital, percent of animals in narcosis: products at 100 mg/kg p.os.; for Potentiation of pentobarbital, percent of animals in narcosis / ED50: 60 min before pentobarbital 20 mg/kg i.p.; for ED50: po, p.os., probit method, confidence limits in parentheses, P <= 0.05. On the procedure: For the purpose of evaluating the hypnogenic power of the products, their capacity to potentiate the effects of a subnarcotic dose of pentabarbital in the mouse was studied. The batches were constituted by 10 CD1 Charles Rivers mice, of weight comprised between 20 and 24 g.
The pentobarbital (20 mg/kg, i.p.) was administered 60 minutes after administration of the products. The drowsiness criterion taken was the loss of the righting reflex.

A short description of data set [5]: Evaluation of the anticonvulsant activity (electric shock, bicucullin and 3-mercaptopropionic acid taken together). Type of data set: in vivo. Particulars: mouse, oral. On the procedure: as §1, §2
(§3) The batches were constituted by 10 CD Charles Rivers mice of weights comprised between 20 and 22 g. The products were administered orally, 60 minutes before the bicucullin (0.8 mg/kg, i.v.).
(§4) The batches were constituted by 10 CD Charles Rivers mice of weights comprised between 20 and 22 g. The products were administered orally 60 minutes before the 3-mercaptopropionic acid (60 mg/kg s.c.).

Data set [6] in a line: Antagonism to the convulsions caused by 3-mercaptopropionic acid. Type of data set: in vivo, mouse (CD Charles Rivers mice). To be noted: mouse, oral, 60 min before 3-mercaptopropionic acid 60 mg/kg s.c.; probit method, confidence limits in parentheses, p <= 0.05; read-out: Median effective dose (ED50) of antagonism to convulsions caused by 3-mercaptopropionic acid. On the procedure: as §1, §4

The nature of data set [7]: Antagonism of convulsions and of mortality caused by bicucullin. Type of data set: in vivo, mouse (CD Charles Rivers mice). On the procedure:
as §1, §3

[8] abbreviates: Mus musculus, po, read-out: Median effective dose (ED50) of the antagonism to the effects of bicucullin: Mortality.
Setting [9] is: mouse, oral, 60 min before bicucullin 0.8 mg/kg i.v., probit method, confidence limits in parentheses, p < 0.05, read-out: Median effective dose (ED50) of the antagonism to the effects of bicucullin: Tonic convulsions.

On to `C[C@@H]1C[C@@H](Cc2cccs2)NC1=O` (relative stereo) [SR 42008, 3-methyl-5-(2-thienyl-methyl)-2-pyrrolidinone], for which the “Locomotor activity, score percent/controls” value in data set [1] is -52%. Besides, the “Effect on spontaneous motility (in words)” value in data set [1] was “sedative activity characterized by a considerable reduction in the motility”. Further, the mortality at 72 h in data set [2] (250 mg/kg), in data set [2] (500 mg/kg) and in data set [2] (1000 mg/kg) was 0% each time.
With `C[C@H]1C[C@@H](Cc2cccs2)NC1=O` (relative stereo) [SR 42009, 3-methyl-5-(2-thienyl-methyl)-2-pyrrolidinone], in data set [1], the “Locomotor activity, score percent/controls” value is -23%. Also, in data set [1], the “Effect on spontaneous motility (in words)” value is reported as “sedative activity characterized by a considerable reduction in the motility”. Further, the mortality at 72 h in data set [2] (250 mg/kg) stood at 0%; in data set [2] (500 mg/kg), 0%; in data set [2] (1000 mg/kg) it was 40%.
As to `O=C1CCC(Cc2ccccc2)N1` (centres unmarked) [Compound A, 5-phenylmethyl 2-pyrrolidinone, reference compound], the “Locomotor activity, score percent/controls” value in data set [1] was “+1.2%”. The “Effect on spontaneous motility (in words)” value in data set [1] is “does not act on the spontaneous motility”. For the same compound, the “Inhibition of electric shock convulsions” value in data set [3] (at 200 mg/kg p.os.) amounted to 40%. Further, in data set [4] (oral), the “Hypnogenic effect / potentiation of narcosis with pentobarbital (in words)” value was “devoid of hyponogenic effect”. Further, in data set [4], the “Potentiation of pentobarbital, percent of animals in narcosis” value is reported as 0%. Also, the mortality at 72 h was 0% in data set [2] (250 mg/kg p.os.), 0% in data set [2] (500 mg/kg p.os.) and 60% in data set [2] (1000 mg/kg p.os.). Further, the “Anticonvulsant properties (in words)” value in data set [5] is recorded as “does not show anticonvulsant properties”. The ED50 in data set [6] was above 100 mg/kg. The “Antagonism to bicucullin mortality” value in data set [7] (mouse, at 200 (mg/kg p.o.)) stood at 30%. Also, the “Median effective dose (ED50) of the antagonism to the effects of bicucullin: Tonic convulsions” value in data set [7] (mouse, oral, 60 min before bicucullin 0.8 mg/kg i.v., probit method, confidence limits in parentheses, p < 0.05) is “inactive at 200”.
On to `CC1(C)CC(Cc2ccc(F)cc2)NC1=O` (centres unmarked) [SR 41293, 3,3-dimethyl-5-[(4-fluoro-phenyl)-methyl]2-pyrrolidinone], for which the ED50 in data set [3] stood at 99 mg/kg; in data set [4] it was 56 mg/kg; in data set [6] it was 20 mg/kg; in data set [7] (setting [8]), 41 mg/kg; in data set [7] (setting [9]), 90 mg/kg. In data set [4], the “Potentiation of pentobarbital, percent of animals in narcosis” value was 80%. For the same compound, the values for the mortality at 72 h in data set [2] (250 mg/kg p.os.), in data set [2] (500 mg/kg p.os.) and in data set [2] (1000 mg/kg p.os.) were 0%, 0% and 80%, respectively.
With `CC1CC(Cc2ccc(Cl)cc2Cl)NC1=O` (centres unmarked) [SR 41676], the “Locomotor activity, score percent/controls” value in data set [1] was -34%. In data set [1], the “Effect on spontaneous motility (in words)” value is reported as “sedative activity characterized by a considerable reduction in the motility”. Besides, in data set [4], the “Potentiation of pentobarbital, percent of animals in narcosis” value worked out at 100%. The median effective dose (ED50) in data set [4] was 48 mg/kg; in data set [6], 23 mg/kg. The mortality at 72 h in data set [2] (250 mg/kg p.os.), in data set [2] (500 mg/kg p.os.) and in data set [2] (1000 mg/kg p.os.) was 0% each time.
Take `CC1CC(Cc2ccccc2Cl)NC1=O` (centres unmarked) [SR 41678]: the “Locomotor activity, score percent/controls” value in data set [1] was “+45%”. Also, the “Effect on spontaneous motility (in words)” value in data set [1] is given as “stimulating effects of the motor activity”. Besides, the 50% effective dose (ED50) came to 44 mg/kg in data set [3], 53 mg/kg in data set [6] and 76 mg/kg in data set [7] (setting [9]). Moreover, the “Potentiation of pentobarbital, percent of animals in narcosis” value in data set [4] turned out to be 30%. The mortality at 72 h in data set [2] (250 mg/kg p.os.) came to 0%; in data set [2] (500 mg/kg p.os.) it was 0%; in data set [2] (1000 mg/kg p.os.), 60%.
Regarding `CC1(C)CC(Cc2ccccc2F)NC1=O` (centres unmarked) [SR 41680], the “Locomotor activity, score percent/controls” value in data set [1] is on record as “+99%”. The “Effect on spontaneous motility (in words)” value in data set [1] is recorded as “stimulating effects of the motor activity”. Moreover, the ED50 amounted to 51 mg/kg in data set [3] and 54 mg/kg in data set [6]. In addition, the mortality at 72 h in data set [2] (250 mg/kg p.os.) and in data set [2] (500 mg/kg p.os.) was 0% throughout.
On to `CC1(C)CC(Cc2ccc(Cl)cc2)NC1=O` (centres unmarked) [SR 41873], for which the ED50 in data set [3] was 62 mg/kg; in data set [6] it was 48 mg/kg; in data set [7] (setting [8]) it was 85 mg/kg; in data set [7] (setting [9]) it was 112 mg/kg. Moreover, in data set [4], the “Potentiation of pentobarbital, percent of animals in narcosis” value stood at 10%. The mortality at 72 h in data set [2] (250 mg/kg p.os.) and in data set [2] (500 mg/kg p.os.) was 0% throughout.
In the case of `CC1CC(Cc2ccccc2F)NC1=O` (centres unmarked) [SR 41881], in data set [1], the “Locomotor activity, score percent/controls” value is listed as “+41%”. Also, in data set [1], the “Effect on spontaneous motility (in words)” value was “stimulating effects of the motor activity”. For the same compound, the ED50 turned out to be 92 mg/kg in data set [3] and 46 mg/kg in data set [6]. Besides, the “Potentiation of pentobarbital, percent of animals in narcosis” value in data set [4] is given as 30%. The mortality at 72 h in data set [2] (250 mg/kg p.os.) amounted to 0%; in data set [2] (500 mg/kg p.os.), 0%; in data set [2] (1000 mg/kg p.os.) it was 100%.
`CC1CC(Cc2ccc(F)cc2)NC1=O` (centres unmarked) [SR 41882, 5[(4-fluoro-phenyl)-methyl]-3-methyl-2-pyrrolidinone]: the “Potentiation of pentobarbital, percent of animals in narcosis” value in data set [4] is 20%. The figures for the mortality at 72 h in data set [2] (250 mg/kg p.os.), in data set [2] (500 mg/kg p.os.) and in data set [2] (1000 mg/kg p.os.) were 0%, 0% and 100%, respectively. Besides, the ED50 in data set [6] was 41 mg/kg.
For the compound `CCC1(C)CC(Cc2ccc(F)cc2)NC1=O` (centres unmarked) [SR 42002], the ED50 in data set [3] was 49 mg/kg; in data set [6] it was 49 mg/kg; in data set [7] (setting [9]), around 100 mg/kg. Besides, in data set [4], the “Potentiation of pentobarbital, percent of animals in narcosis” value came out at 50%. In addition, the mortality at 72 h stood at 0% in data set [2] (250 mg/kg p.os.), 0% in data set [2] (500 mg/kg p.os.) and 100% in data set [2] (1000 mg/kg p.os.).
Regarding `CC1CC(Cc2c(F)cccc2Cl)NC1=O` (centres unmarked) [SR 42004], the ED50 in data set [3] is 34 mg/kg; in data set [6], 27 mg/kg; in data set [7] (setting [8]), above 100 mg/kg; in data set [7] (setting [9]) it was around 100 mg/kg. In addition, in data set [4], the “Potentiation of pentobarbital, percent of animals in narcosis” value turned out to be 30%. The mortality at 72 h in data set [2] (250 mg/kg p.os.), in data set [2] (500 mg/kg p.os.) and in data set [2] (1000 mg/kg p.os.) was 0% throughout.
As for `CC1CC(Cc2ccccc2)NC1=O` (centres unmarked) [SR 42010], the ED50 in data set [3] is 105 mg/kg; in data set [6], 44 mg/kg. In data set [2] (250 mg/kg p.os.), the mortality at 72 h worked out at 0%.
For `CC1CC(Cc2ccc(Cl)cc2)NC1=O` (centres unmarked) [SR 42354], the ED50 is 34 mg/kg in data set [3], 40 mg/kg in data set [6], 66 mg/kg in data set [7] (setting [8]) and 63 mg/kg in data set [7] (setting [9]). The mortality at 72 h in data set [2] (250 mg/kg p.os.) and in data set [2] (500 mg/kg p.os.) was 0% throughout.
